Data from publication PMC9307114, “Discovery and SAR analysis of phenylbenzo[d][1,3]dioxole-based proprotein convertase subtilisin/kexin type 9 inhibitors” (Journal of Enzyme Inhibition and Medicinal Chemistry, 2022).

Assays:
PCSK9/LDLR PPI = PCSK9/LDLR PPI (Homo sapiens, UniProt Q8NBP7); assay: PCSK9-LDLR TR-FRET assay (PCSK9/LDLR PPI inhibitory screening); assay type: binding; details: for inhibition at 10 µM: mean of three experiments, read-out: PCSK9 percentage inhibitory rate; for IC50: dose-dependent IC50 plot, Figure 3, read-out: PCSK9 IC50 (inhibition of PCSK9/LDLR PPI)
Chain of PCSK9/LDLR PPI (Q8NBP7 153-692): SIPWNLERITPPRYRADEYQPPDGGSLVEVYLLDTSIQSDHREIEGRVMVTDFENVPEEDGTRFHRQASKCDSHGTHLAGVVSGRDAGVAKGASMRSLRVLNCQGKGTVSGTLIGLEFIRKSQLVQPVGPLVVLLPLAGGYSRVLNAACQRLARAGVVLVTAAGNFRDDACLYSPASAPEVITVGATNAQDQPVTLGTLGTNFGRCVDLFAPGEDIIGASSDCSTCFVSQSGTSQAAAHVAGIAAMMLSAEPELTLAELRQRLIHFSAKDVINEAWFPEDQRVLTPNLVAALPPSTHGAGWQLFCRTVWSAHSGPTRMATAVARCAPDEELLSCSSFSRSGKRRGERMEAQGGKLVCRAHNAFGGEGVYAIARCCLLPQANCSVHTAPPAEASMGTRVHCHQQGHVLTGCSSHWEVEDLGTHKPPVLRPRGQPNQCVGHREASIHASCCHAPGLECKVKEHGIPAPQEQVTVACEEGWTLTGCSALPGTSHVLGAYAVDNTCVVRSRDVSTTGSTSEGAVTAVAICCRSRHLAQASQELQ
Chain of PCSK9/LDLR PPI (Q8NBP7 31-152 partner limits assumed): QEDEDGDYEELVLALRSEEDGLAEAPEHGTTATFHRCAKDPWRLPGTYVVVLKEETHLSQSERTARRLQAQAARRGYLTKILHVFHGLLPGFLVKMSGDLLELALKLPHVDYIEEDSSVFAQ
Protocol: The PCSK9/LDLR time-resolved fluorescence resonance energy transfer (TR-FRET) assay was performed to evaluate the activity of synthesised compounds in inhibition of PCSK9-LDLR binding. The A series compounds were firstly synthesised for the PCSK9/LDLR PPI inhibitory test. […] Therefore, a group of A12 derivatives (B series) were synthesised with 4-chlorobenzyl substituted in the amino group and various substitutions introduced to the carboxylic group. […] To confirm whether the 4-chloromethyl group is essential for the PPI inhibitory activity, a new series of compounds (C series) were synthesised with the 4-chloromethyl group replaced by 4-methoxymethyl moiety. The inhibitory activity was observed, most likely resulting from the 4-methoxymethyl substitution (Table 3).
The compounds were dissolved in 100% DMSO; then 2 µL of the dilution was added to a 20 µL of reaction to keep […] in all of reactions. The binding reaction was conducted at room temperature. The reaction mixture in assay buffer contains PCSK9, the indicated amount of the inhibitor, ligand LDLR, and the reaction dyes. The reaction mixture was incubated for 120 min before detection of the TR-FRET signal. Fluorescence signals for both the donor and acceptor dyes were measured using a Tecan Infinite M1000 plate reader. TR-FRET was recorded as the ratio of the fluorescence of the acceptor and the donor dyes (acceptor/donor). The TR-FRET data were analysed using Graphpad Prism software.

[1] = tested on: LDL uptake of HepG2 cells; assay: Fluorescent LDL uptake assay in the presence of PCSK9; assay type: cell-based, human; details: PCSK9 treatment group 29.82%
Protocol: Extracellular LDL uptake assay was performed to evaluate the functional effects of PCSK9/LDLR PPI inhibition. The effects of active compounds in improving the capacity of HepG2 cells to uptake the fluorescent LDL were investigated using SBC-115337 as the positive control. […] The tested compound A12, B1, B3, B4 and B14 strengthened the ability of HepG2 cells to absorb LDL from 29.82% of the PCSK9 treatment group up to 32.78%, 33.29%, 39.58%, 36.24% and 42.41% at the doses of 5 µM, and 44.80%, 47.15%, 50.67%, 49.94 and 64.27% at the doses of 10 µM, respectively.
HepG2 cells (2 × 10^4 cells per well) were seeded in black 96-well plates and cultured for more than 24 h. The following day, cells were treated with 4.0 μg/ml K9 alone and the tested compounds with the presence of 4.0 μg/ml of K9, and vehicle (PBS) for 8 h. At the end of the treatments, the culture medium was replaced with 50.0 μl/well LDL-DyLight™ 550 working solution (Cayman Chemical Company, US). The cells were additionally incubated for 16 h at 37 °C. Then the cells were washed with PBS one time, then added PBS with 100.0 μl/well. The degree of LDL uptake was measured using a plate reader (EnSpire, Perkin Elmer Corporation) at excitation wavelengths 540 nm and emission wavelengths 570 nm.

HepG2 cells = assay: MTT assay on HepG2 cells; assay type: cell-based; details: Homo sapiens, mean of three experiments, read-out: HepG2 percentage inhibitory rate
[2] = tested on: LDLR level on the surface of HepG2 cells; assay: LDLR expression assay, In-Cell Western (ICW), in the presence of PCSK9; assay type: cell-based, human; details: for effect on LDLR protein level (in words): HepG2 cells in the presence of PCSK9, compared with positive control SBC-115337; for proportion of LDLR: PCSK9 alone 34.33%
Protocol: LDLR is degraded in lysosomes by binding to PCSK9. Thus, inhibition of PCSK9/LDLR PPI could increase the LDLR level on the surface of hepatocytes. In the current study, human hepatic HepG2 cells were selected for the investigation of the active compounds for LDLR expression. SBC-115337, developed by Shifa Biomedical Corporation, as a potent PCSK9/LDLR PPI inhibitor was utilised as the positive control. All the synthesised compounds were evaluated to be safe with low inhibitory ratios at the dose of 10 µM in the MTT assay (Tables 1–3). Then, in cell western (ICW) assay was performed to detect the LDLR level on the surface of HepG2 cells.
The HepG2 cell line was grown in a humidified incubator with 5% CO2 at 37 °C and cultured in DMEM-High glucose medium with 10% (v/v) heat-inactivation foetal bovine serum, 2 mM L-glutamine and 100 U/ml penicillin-streptomycin. The expression level of LDLR in HepG2 cells was determined by In-Cell Western (ICW) Assay as described previously. Briefly, cells were plated in a 96-well plate (2 × 10^4 cells per well) and cultured for more than 24 h, followed by washing with PBS and starving overnight in DMEM without FBS. HepG2 cells were treated with 4.0 μg/ml PCSK9 (K9) alone and the tested compounds with the presence of 4.0 μg/ml of K9, and vehicle (PBS) for 8 h. Then cells were washed with PBS one time and fixed in 4% paraformaldehyde for 20 min. Cells were washed 5 times with PBS, then were blocked with 5% BSA in PBS for 1 h. LDLR monoclonal Antibody solution (1:1000 in 5% BSA in PBS, 50.0 μL/well) was incubated overnight at 4 °C. Subsequently, the cells were washed 5 times with PBS. Goat anti-mouse IgG-HRP secondary antibody solution (1:2000 in 5% BSA in PBS, 50.0 μL/well) was added and incubated 1 h at RT. Then cells were washed 5 times with PBS and added with TMB substrate, then incubated at RT until desired colour was developed. 50.0 μL/well of 2 M H2SO4 were added to stop the reaction and the absorbance at 450 nm was measured using a plate reader (EnSpire, Perkin Elmer Corporation).

[3] = 5 µM compound with 4.0 μg/ml PCSK9
[4] = 10 µM compound with 4.0 μg/ml PCSK9

inhibition at 10 µM (PCSK9/LDLR PPI) [%]	IC50 (PCSK9/LDLR PPI) [µM]	SMILES	LDL uptake of HepG2 cells [1, 3] [%]	LDL uptake of HepG2 cells [1, 4] [%]	inhibition at 10 µM (HepG2 cells) [%]	effect on LDLR protein level (in words) [2]	proportion of LDLR ([2]; 5 µM compound with 4.0 μg/ml PCSK9, 8 h) [%]	proportion of LDLR ([2]; 10 µM compound with 4.0 μg/ml PCSK9, 8 h) [%]
45.2 ± 2.85	24.6	O=C(Nc1ccc(O)cc1)c1ccc(-c2cc3c(cc2NC(=O)c2ccc(CCl)cc2)OCO3)cc1 [B4, 4-(Chloromethyl)-N-(6-(4-((4-hydroxyphenyl)carbamoyl)phenyl)benzo[d][1,3]dioxol-5-yl)benzamide]	36.24	49.94	5.42 ± 0.38	restored the LDLR protein level in a dose dependent manner	–	–
64.6 ± 1.54	16.4	COc1ccccc1N1CCN(C(=O)c2ccc(-c3cc4c(cc3NC(=O)c3ccc(CCl)cc3)OCO4)cc2)CC1 [B14, 4-(Chloromethyl)-N-(6-(4-(4-(2-methoxyphenyl)piperazine-1-carbonyl)phenyl)benzo[d][1,3]dioxol-5-yl)benzamide]	42.41	64.27	5.71 ± 0.54	restored the LDLR protein level in a dose dependent manner	50.55	66.51
